In ChEMBL document CHEMBL5104130, “Synthesis of a tricyclic hexapeptide -via two consecutive ruthenium-catalyzed macrocyclization steps- with a constrained topology to mimic vancomycin's binding properties toward D-Ala-D-Ala dipeptide” (2022):
≈ marks a conversion by molar mass, not a printed value.

Test system: Staphylococcus aureus
Experiment: Antibacterial activity against vancomycin-sensitive Staphylococcus aureus ATCC 49320 assessed as inhibition of bacterial growth incubated for 24 hrs
Type: functional

MIC: 37.5 µg/mL (≈ 40.8 µM)
Compound: CN[C@H](CC(C)C)C(=O)N[C@@H]1CCCCn2nncc2-c2cc3cc(c2OC)-c2cnnn2CCCC[C@@H]2NC(=O)[C@@H](C/C=C/Cc4ccccc4NC2=O)NC(=O)[C@@H]3NC(=O)[C@H](C)NC1=O
